From ChEMBL document CHEMBL4507277

How the values were obtained:
[1] = target: Muscarinic acetylcholine receptor M3 (Homo sapiens) (UniProt P20309); settings: Compound concentration 10.0 uM
[2] = target: Beta-1 adrenergic receptor (Homo sapiens) (UniProt P08588); settings: Compound concentration 10.0 uM
[3] = target: D(1A) dopamine receptor (Homo sapiens) (UniProt P21728); settings: Compound concentration 10.0 uM
[4] = target: D(2) dopamine receptor (Homo sapiens) (UniProt P14416); settings: Compound concentration 10.0 uM
Sequence of D(2) dopamine receptor (Homo sapiens) (P14416 whole entry): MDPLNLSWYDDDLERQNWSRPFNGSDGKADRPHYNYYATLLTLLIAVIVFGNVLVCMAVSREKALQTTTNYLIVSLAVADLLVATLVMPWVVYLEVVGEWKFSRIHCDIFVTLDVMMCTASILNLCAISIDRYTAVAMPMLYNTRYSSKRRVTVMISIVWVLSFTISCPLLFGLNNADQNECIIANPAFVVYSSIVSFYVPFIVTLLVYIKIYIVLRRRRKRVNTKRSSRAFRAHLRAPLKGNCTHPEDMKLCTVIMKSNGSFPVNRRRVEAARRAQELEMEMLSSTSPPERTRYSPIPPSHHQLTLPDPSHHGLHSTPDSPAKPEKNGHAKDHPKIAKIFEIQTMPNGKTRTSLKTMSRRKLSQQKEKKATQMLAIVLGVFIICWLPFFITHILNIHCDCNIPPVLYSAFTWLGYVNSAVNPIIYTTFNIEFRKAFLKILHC

[5] = target: Sodium-dependent serotonin transporter (Homo sapiens) (UniProt P31645); settings: Compound concentration 10.0 uM
Sequence of Sodium-dependent serotonin transporter (Homo sapiens) (P31645 whole entry, looked up): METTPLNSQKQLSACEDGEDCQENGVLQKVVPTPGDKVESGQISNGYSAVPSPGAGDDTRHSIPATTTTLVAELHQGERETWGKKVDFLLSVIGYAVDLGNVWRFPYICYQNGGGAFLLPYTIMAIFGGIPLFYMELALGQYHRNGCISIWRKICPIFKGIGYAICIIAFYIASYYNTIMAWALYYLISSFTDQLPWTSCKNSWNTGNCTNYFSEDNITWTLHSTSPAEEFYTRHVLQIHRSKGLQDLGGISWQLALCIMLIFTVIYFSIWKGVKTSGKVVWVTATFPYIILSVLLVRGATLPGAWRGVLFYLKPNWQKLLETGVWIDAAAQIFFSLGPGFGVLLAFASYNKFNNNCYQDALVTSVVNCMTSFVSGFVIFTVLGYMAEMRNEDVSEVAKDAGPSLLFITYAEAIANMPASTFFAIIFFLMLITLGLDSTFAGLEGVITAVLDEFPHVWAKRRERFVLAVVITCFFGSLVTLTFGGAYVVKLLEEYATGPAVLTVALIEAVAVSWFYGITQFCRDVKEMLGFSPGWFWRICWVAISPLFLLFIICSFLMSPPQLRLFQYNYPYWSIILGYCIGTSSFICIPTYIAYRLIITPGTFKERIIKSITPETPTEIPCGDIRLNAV

[6] = target: Polyunsaturated fatty acid lipoxygenase ALOX15 (Oryctolagus cuniculus) (UniProt P12530); settings: Compound concentration 10.0 uM
[7] = target: Adrenergic receptor alpha-1 (Rattus norvegicus) (UniProt P15823+P23944+P43140); settings: Compound concentration 10.0 uM
[8] = target: D(1A) dopamine receptor (Homo sapiens) (UniProt P21728); settings: Compound concentration 10.0 uM; remark: listed apart in the source
[9] = target: Opioid receptor (Rattus norvegicus) (UniProt P33533+P34975+P33535); settings: Compound concentration 10.0 uM
[10] = target: Type-1 angiotensin II receptor (Oryctolagus cuniculus) (UniProt P34976); settings: Homo sapiens; Compound concentration 10.0 uM
[11] = target: Adrenergic receptor alpha-2 (Rattus norvegicus) (UniProt P22086+P19328+P22909); settings: Compound concentration 10.0 uM
[12] = target: Neutrophil elastase (Homo sapiens) (UniProt P08246); settings: Compound concentration 10.0 uM
Sequence of Neutrophil elastase (Homo sapiens) (P08246 whole entry): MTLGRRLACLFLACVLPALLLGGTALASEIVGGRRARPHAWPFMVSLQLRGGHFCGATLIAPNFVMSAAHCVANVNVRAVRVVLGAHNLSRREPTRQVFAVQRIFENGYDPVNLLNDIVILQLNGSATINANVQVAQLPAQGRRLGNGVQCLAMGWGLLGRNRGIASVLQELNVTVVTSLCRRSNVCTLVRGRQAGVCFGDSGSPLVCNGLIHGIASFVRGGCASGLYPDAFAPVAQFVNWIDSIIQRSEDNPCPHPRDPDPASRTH

[13] = target: cGMP-inhibited 3',5'-cyclic phosphodiesterase 3A (Homo sapiens) (UniProt Q14432); settings: Compound concentration 10.0 uM
[14] = target: T1, D(4) dopamine receptor (Homo sapiens) (UniProt P21917); settings: Compound concentration 10.0 uM
T1 sequence (whole entry): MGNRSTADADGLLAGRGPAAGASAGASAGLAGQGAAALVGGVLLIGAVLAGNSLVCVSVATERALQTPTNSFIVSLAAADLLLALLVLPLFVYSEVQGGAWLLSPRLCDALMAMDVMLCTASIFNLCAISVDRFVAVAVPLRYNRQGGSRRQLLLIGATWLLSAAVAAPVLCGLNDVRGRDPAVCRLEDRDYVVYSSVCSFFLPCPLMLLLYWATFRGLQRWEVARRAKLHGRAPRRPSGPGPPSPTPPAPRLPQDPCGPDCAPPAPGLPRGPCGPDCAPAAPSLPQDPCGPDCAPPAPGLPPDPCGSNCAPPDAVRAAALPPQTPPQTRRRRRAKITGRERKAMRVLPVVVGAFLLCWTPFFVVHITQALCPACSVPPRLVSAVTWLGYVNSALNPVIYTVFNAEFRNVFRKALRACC

[15] = target: 5-hydroxytryptamine receptor 4 (Cavia porcellus) (UniProt O70528); settings: Compound concentration 10.0 uM
Sequence of 5-hydroxytryptamine receptor 4 (Cavia porcellus) (O70528 whole entry): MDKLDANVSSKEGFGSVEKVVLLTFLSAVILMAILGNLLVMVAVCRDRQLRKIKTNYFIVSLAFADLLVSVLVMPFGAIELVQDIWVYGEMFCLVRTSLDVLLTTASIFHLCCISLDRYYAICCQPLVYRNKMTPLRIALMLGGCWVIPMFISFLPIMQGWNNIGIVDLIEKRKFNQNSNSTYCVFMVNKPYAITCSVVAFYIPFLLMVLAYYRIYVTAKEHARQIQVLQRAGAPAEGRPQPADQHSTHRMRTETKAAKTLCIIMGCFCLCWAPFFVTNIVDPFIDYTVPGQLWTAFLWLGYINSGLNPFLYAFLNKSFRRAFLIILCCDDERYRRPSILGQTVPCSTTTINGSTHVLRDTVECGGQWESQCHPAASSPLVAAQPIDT

[16] = target: Voltage-dependent N-type calcium channel subunit alpha-1B (Rattus norvegicus) (UniProt Q02294); settings: Compound concentration 10.0 uM
[17] = target: Carbonic anhydrase 6 (Homo sapiens) (UniProt P23280); settings: Compound concentration 10.0 uM
[18] = target: Polyunsaturated fatty acid 5-lipoxygenase (Homo sapiens) (UniProt P09917); settings: Compound concentration 10.0 uM
[19] = target: Histamine H1 receptor (Homo sapiens) (UniProt P35367); settings: Compound concentration 10.0 uM
[20] = target: Cathepsin G (Homo sapiens) (UniProt P08311); settings: Compound concentration 10.0 uM
Sequence of Cathepsin G (Homo sapiens) (P08311 whole entry): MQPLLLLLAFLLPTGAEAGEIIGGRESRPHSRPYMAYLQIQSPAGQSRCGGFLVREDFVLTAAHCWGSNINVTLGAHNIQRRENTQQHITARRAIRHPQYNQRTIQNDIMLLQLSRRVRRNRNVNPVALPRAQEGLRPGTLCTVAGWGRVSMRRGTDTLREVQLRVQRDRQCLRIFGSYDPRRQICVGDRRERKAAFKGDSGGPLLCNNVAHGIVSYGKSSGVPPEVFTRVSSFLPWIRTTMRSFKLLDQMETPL

[21] = target: Muscarinic acetylcholine receptor (Rattus norvegicus) (UniProt P08482+P08483+P08485+P08911+P10980); settings: Compound concentration 10.0 uM
[22] = target: Beta-1 adrenergic receptor (Homo sapiens) (UniProt P08588); settings: Compound concentration 10.0 uM; remark: listed apart in the source
[23] = target: T2, 5-hydroxytryptamine receptor 3A (Homo sapiens) (UniProt P46098); settings: Compound concentration 10.0 uM
T2 sequence (whole entry): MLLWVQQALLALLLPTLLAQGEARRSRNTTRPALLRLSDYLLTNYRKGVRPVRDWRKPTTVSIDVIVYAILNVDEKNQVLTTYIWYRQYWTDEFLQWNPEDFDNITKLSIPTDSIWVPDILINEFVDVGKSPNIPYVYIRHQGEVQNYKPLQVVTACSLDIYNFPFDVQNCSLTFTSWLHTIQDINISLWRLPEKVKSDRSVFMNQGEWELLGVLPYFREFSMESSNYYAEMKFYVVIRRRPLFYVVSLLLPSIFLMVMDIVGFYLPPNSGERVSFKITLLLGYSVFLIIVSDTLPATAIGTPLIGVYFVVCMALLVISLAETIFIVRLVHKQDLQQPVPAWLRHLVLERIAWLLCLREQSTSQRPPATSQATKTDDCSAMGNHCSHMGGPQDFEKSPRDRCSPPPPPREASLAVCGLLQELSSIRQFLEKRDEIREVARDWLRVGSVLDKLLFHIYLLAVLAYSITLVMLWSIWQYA

[24] = target: Serotonin 2 (5-HT2) receptor (Rattus norvegicus) (UniProt P30994+P08909+P14842); settings: Compound concentration 10.0 uM
[25] = target: Sigma intracellular receptor 2 (Homo sapiens) (UniProt Q5BJF2); settings: Compound concentration 10.0 uM
Sequence of Sigma intracellular receptor 2 (Homo sapiens) (Q5BJF2 whole entry): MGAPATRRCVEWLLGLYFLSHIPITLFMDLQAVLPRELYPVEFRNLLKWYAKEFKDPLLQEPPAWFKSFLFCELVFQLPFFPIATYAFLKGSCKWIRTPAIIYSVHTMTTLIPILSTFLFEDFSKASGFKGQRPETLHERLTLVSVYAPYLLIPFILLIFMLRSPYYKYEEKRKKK

[26] = target: Glutamate receptor ionotropic, NMDA 1 (Rattus norvegicus) (UniProt P35439); settings: Compound concentration 10.0 uM
[27] = target: Sigma receptor (Homo sapiens) (UniProt Q99720+Q5BJF2); settings: Cavia porcellus; Compound concentration 10.0 uM
[28] = target: Gamma-aminobutyric acid receptor subunit beta-1 (Homo sapiens) (UniProt P18505); settings: Rattus norvegicus; Compound concentration 10.0 uM
[29] = target: Potassium voltage-gated channel subfamily A member 1 (Rattus norvegicus) (UniProt P10499); settings: Compound concentration 10.0 uM
[30] = target: Acetylcholinesterase (Homo sapiens) (UniProt P22303); settings: Compound concentration 10.0 uM
Sequence of Acetylcholinesterase (Homo sapiens) (P22303 whole entry): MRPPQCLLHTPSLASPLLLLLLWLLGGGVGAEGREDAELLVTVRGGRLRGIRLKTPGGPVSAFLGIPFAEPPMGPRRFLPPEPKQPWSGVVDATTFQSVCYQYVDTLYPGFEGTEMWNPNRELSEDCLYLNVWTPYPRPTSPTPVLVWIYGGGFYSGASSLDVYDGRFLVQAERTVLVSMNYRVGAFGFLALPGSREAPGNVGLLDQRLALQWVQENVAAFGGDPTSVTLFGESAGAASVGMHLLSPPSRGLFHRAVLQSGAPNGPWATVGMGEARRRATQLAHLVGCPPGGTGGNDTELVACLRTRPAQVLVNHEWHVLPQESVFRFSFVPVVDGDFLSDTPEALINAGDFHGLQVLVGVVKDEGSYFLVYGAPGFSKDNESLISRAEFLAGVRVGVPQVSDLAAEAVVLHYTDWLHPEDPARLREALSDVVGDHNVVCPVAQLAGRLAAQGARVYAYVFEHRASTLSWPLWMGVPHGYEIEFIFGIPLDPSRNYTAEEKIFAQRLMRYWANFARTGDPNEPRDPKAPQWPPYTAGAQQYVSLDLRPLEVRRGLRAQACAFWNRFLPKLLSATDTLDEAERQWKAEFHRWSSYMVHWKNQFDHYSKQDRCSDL

[31] = target: Alpha-1A adrenergic receptor (Homo sapiens) (UniProt P35348); settings: Compound concentration 10.0 uM
[32] = target: Sodium-dependent dopamine transporter (Homo sapiens) (UniProt Q01959); settings: Compound concentration 10.0 uM
Sequence of Sodium-dependent dopamine transporter (Homo sapiens) (Q01959 whole entry): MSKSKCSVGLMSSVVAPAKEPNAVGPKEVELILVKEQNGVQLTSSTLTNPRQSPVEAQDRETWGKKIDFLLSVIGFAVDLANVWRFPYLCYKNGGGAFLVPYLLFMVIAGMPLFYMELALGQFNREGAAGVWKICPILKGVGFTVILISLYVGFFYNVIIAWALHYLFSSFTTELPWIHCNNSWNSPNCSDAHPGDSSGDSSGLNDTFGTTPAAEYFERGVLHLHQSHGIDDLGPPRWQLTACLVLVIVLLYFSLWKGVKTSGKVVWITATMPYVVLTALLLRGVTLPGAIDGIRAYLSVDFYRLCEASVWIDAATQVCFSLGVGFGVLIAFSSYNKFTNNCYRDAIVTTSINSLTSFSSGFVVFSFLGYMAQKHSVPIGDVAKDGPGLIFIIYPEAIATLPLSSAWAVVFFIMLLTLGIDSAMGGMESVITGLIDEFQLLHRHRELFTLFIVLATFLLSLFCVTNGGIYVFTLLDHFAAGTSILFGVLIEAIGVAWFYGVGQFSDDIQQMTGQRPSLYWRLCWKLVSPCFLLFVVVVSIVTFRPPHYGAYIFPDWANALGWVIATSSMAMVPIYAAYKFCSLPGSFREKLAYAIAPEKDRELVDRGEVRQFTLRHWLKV

Sequence of Beta-1 adrenergic receptor (Homo sapiens) (P08588 whole entry, looked up): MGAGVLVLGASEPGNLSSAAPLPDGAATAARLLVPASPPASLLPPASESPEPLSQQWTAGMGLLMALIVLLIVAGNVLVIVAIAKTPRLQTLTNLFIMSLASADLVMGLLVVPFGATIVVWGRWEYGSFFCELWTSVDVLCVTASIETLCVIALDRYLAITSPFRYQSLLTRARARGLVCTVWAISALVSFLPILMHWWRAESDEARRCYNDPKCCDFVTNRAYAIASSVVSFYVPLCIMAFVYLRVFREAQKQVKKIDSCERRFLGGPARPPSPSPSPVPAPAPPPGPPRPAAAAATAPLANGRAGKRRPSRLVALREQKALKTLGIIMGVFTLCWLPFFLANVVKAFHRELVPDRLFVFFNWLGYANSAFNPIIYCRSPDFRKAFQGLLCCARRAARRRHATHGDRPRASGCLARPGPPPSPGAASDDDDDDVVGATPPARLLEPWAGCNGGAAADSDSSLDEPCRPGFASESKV
Sequence of D(1A) dopamine receptor (Homo sapiens) (P21728 whole entry): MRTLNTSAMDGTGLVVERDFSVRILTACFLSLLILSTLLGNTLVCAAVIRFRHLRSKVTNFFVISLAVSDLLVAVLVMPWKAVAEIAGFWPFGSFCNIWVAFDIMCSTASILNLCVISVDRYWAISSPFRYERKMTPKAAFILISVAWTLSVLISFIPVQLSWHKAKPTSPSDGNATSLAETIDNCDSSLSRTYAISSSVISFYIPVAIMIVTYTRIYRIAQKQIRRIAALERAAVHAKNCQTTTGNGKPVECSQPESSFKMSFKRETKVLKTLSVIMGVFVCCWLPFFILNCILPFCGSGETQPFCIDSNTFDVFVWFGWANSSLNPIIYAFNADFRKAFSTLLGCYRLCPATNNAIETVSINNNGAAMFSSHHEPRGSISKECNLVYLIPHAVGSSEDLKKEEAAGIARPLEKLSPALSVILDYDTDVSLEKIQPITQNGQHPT
Sequence of Muscarinic acetylcholine receptor M3 (Homo sapiens) (P20309 whole entry, looked up): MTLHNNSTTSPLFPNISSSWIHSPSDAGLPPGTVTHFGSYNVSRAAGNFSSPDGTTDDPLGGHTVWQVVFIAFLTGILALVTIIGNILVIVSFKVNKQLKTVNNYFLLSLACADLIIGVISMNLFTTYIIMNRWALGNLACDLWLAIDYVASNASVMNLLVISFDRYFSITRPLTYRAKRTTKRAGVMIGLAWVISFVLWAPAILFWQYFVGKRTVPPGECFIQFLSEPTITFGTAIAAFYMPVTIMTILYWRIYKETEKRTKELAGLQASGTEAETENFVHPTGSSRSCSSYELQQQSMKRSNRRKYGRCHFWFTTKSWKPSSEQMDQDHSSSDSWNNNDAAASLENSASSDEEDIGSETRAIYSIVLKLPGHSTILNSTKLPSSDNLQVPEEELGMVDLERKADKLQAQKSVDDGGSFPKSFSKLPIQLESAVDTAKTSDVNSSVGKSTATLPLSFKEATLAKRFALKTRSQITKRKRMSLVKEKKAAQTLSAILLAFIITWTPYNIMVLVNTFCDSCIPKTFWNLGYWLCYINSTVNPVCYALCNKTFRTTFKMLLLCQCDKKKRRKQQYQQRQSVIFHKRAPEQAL

CCS(=O)(=O)c1cc2cc(C[C@@](O)(CC(C)(C)c3ccc(F)cc3C(N)=O)C(F)(F)F)[nH]c2cn1
inactive: inhibition [1] 1.25% | inhibition [2] -8.85% | inhibition [3] 2.6% | inhibition [4] -8.41%

CCS(=O)(=O)c1cc2cc(C[C@](O)(CC(C)(C)c3ccc(F)cc3C(N)=O)C(F)(F)F)[nH]c2cn1
inactive: residual activity [5] 99% | residual activity [6] 89% | residual activity [7] 89% | residual activity [8] 92% | residual activity [9] 95% | residual activity [10] 96% | residual activity [11] 106% | residual activity [12] 87% | residual activity [13] 82% | residual activity [14] 104% | residual activity [15] 89% | residual activity [16] 96% | residual activity [17] 85% | residual activity [18] 79% | residual activity [19] 100% | residual activity [20] 104% | residual activity [21] 103% | residual activity [22] 90% | residual activity [23] 100% | residual activity [24] 94% | inhibition [25] 9.04% | residual activity [26] 103% | residual activity [27] 86% | residual activity [28] 75% | residual activity [29] 87% | residual activity [30] 91% | inhibition [31] -0.31% | residual activity [32] 106%
